Reference: patent publication US11135234B2, “Effective aminoglycoside antibiotic for multidrug-resistant bacteria” (MICROBIAL CHEMISTRY RESEARCH FOUNDATION, priority 2015, dated 2021)
Values after ≈ are worked out from the molar mass of the structure shown.

Assays:
[1] = test system: A. baumannii ATCC BAA-1710; test: MIC, agar plate dilution method, A. baumannii ATCC BAA-1710; assay type: cell-based, Acinetobacter baumannii; details: for minimal inhibitory concentration (MIC): A. baumannii ATCC BAA-1710, MDRA; for MIC: Acinetobacter baumannii, ATCCBAA1710, A. baumannii ATCC BAA-1710, MDRA, read-out: minimal inhibitory concentration (MIC)
Outline: (§1)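 Minimal inhibitory concentration (μg/mL) was determined by agar plate dilution following the Japan Society of Chemotherapy method.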

S. aureus RN4220 = test: MIC, agar plate dilution method, S. aureus RN4220; assay type: cell-based, Staphylococcus aureus; details: for minimal inhibitory concentration (MIC): S. aureus RN4220, Sensitive bacterium; for MIC: Staphylococcus aureus, RN4220, S. aureus RN4220, Sensitive bacterium, read-out: minimal inhibitory concentration (MIC)
Outline: as §1

P. aeruginosa PAO1/GN315 = test: MIC, agar plate dilution method, P. aeruginosa PAO1/GN315; assay type: cell-based, Pseudomonas aeruginosa; details: for minimal inhibitory concentration (MIC): P. aeruginosa PAO1/GN315, AMK-resistant; for MIC: Pseudomonas aeruginosa, read-out: minimal inhibitory concentration (MIC), P. aeruginosa PAO1/GN315, AMK-resistant
Outline: as §1

P. aeruginosa PAO1 = test: MIC, agar plate dilution method, P. aeruginosa PAO1; assay type: cell-based, Pseudomonas aeruginosa; details: for minimal inhibitory concentration (MIC): P. aeruginosa PAO1, Sensitive bacterium; for MIC: Pseudomonas aeruginosa, PAO1, P. aeruginosa PAO1, Sensitive bacterium, read-out: minimal inhibitory concentration (MIC)
Outline: as §1

S. aureus RN4220/pMS520 = test: MIC, agar plate dilution method, S. aureus RN4220/pMS520; assay type: cell-based, Staphylococcus aureus; details: for minimal inhibitory concentration (MIC): S. aureus RN4220/pMS520, MRSA; for MIC: Staphylococcus aureus, MRSA, read-out: minimal inhibitory concentration (MIC), S. aureus RN4220/pMS520, MRSA
Outline: as §1

S. aureus MF490 = test: MIC, agar plate dilution method, S. aureus MF490; assay type: cell-based, Staphylococcus aureus; details: for minimal inhibitory concentration (MIC): S. aureus MF490, MRSA; for MIC: Staphylococcus aureus, MRSA, read-out: minimal inhibitory concentration (MIC)
Outline: as §1

E. faecium ATCC19434 = test: MIC, agar plate dilution method, E. faecium ATCC19434; assay type: cell-based, Enterococcus faecium; details: for minimal inhibitory concentration (MIC): E. faecium ATCC19434; for MIC: Enterococcus faecium, ATCC19434, E. faecium ATCC19434, read-out: minimal inhibitory concentration (MIC)
Outline: as §1

E. coli JM109/pMW218 = test: MIC, agar plate dilution method, E. coli JM109/pMW218; assay type: cell-based, Escherichia coli; details: for minimal inhibitory concentration (MIC): E. coli JM109/pMW218, Sensitive bacterium; for MIC: Escherichia coli, JM109/PMW218, E. coli JM109/pMW218, Sensitive bacterium, read-out: minimal inhibitory concentration (MIC)
Outline: as §1

P. aeruginosa MSC01035 = test: MIC, agar plate dilution method, P. aeruginosa MSC01035; assay type: cell-based, Pseudomonas aeruginosa; details: P. aeruginosa MSC01035, ABK-resistant; for MIC: Pseudomonas aeruginosa, read-out: minimal inhibitory concentration (MIC)
Outline: as §1

P. aeruginosa MSC17707 = test: MIC, agar plate dilution method, P. aeruginosa MSC17707; assay type: cell-based, Pseudomonas aeruginosa; details: for minimal inhibitory concentration (MIC): P. aeruginosa MSC17707, AMK-resistant; for MIC: Pseudomonas aeruginosa, MSC17707, P. aeruginosa MSC17707, AMK-resistant, read-out: minimal inhibitory concentration (MIC)
Outline: as §1

S. marcescens TH-0447 = test: MIC, agar plate dilution method, S. marcescens TH-0447; assay type: cell-based, Serratia marcescens; details: for minimal inhibitory concentration (MIC): S. marcescens TH-0447, AMK-resistant; for MIC: Serratia marcescens, TH0447, S. marcescens TH-0447, AMK-resistant, read-out: minimal inhibitory concentration (MIC)
Outline: as §1

[2] = test system: K. pneumoniae ATCC BAA-1705; test: MIC, agar plate dilution method, K. pneumoniae ATCC BAA-1705; assay type: cell-based, Klebsiella pneumoniae; details: for minimal inhibitory concentration (MIC): K. pneumoniae ATCC BAA-1705, KPC-producing strain; for MIC: Klebsiella pneumoniae, ATCCBAA1705, K. pneumoniae ATCC BAA-1705, KPC-producing strain, read-out: minimal inhibitory concentration (MIC)
Outline: as §1

S. marcescens GN6944 = test: MIC, agar plate dilution method, S. marcescens GN6944; assay type: cell-based, Serratia marcescens; details: S. marcescens GN6944, GM-resistant; for MIC: Serratia marcescens, read-out: minimal inhibitory concentration (MIC)
Outline: as §1

[3] = test system: K. pneumoniae ATCC BAA-2146; test: MIC, agar plate dilution method, K. pneumoniae ATCC BAA-2146; assay type: cell-based, Klebsiella pneumoniae; details: for minimal inhibitory concentration (MIC): K. pneumoniae ATCC BAA-2146, NDM-producing strain; for MIC: Klebsiella pneumoniae, ATCCBAA2146, K. pneumoniae ATCC BAA-2146, NDM-producing strain, read-out: minimal inhibitory concentration (MIC)
Outline: as §1

SMILES | minimal inhibitory concentration (MIC) [1] | minimal inhibitory concentration (MIC) (S. aureus RN4220) | minimal inhibitory concentration (MIC) (P. aeruginosa PAO1/GN315) | minimal inhibitory concentration (MIC) (P. aeruginosa PAO1) | minimal inhibitory concentration (MIC) (S. aureus RN4220/pMS520) | minimal inhibitory concentration (MIC) (S. aureus MF490) | MIC [1] | MIC (S. aureus RN4220) | MIC (P. aeruginosa PAO1/GN315) | MIC (P. aeruginosa PAO1) | MIC (S. aureus RN4220/pMS520) | MIC (S. aureus MF490) | MIC (E. faecium ATCC19434) | MIC (E. coli JM109/pMW218) | MIC (P. aeruginosa MSC01035) | MIC (P. aeruginosa MSC17707) | MIC (S. marcescens TH-0447) | MIC [2] | MIC (S. marcescens GN6944) | MIC [3] | further results
CNC1C(OC2OC(CO)C(NC(=N)N)CC2O)OC2CC(N)C(OC3CC(O)C(N)CC3N)OC2C1O (stereo not shown) [Compound U4-a, 4″-deamino-5,3″-dideoxy-4″-guanidinoapramycin] | 8 µg/mL (≈ 14.6 µM) | 1 µg/mL (≈ 1.82 µM) | 4 µg/mL (≈ 7.28 µM) | 4 µg/mL (≈ 7.28 µM) | 1 µg/mL (≈ 1.82 µM) | 4 µg/mL (≈ 7.28 µM) |  |  |  |  |  |  |  |  |  |  |  |  |  |  | minimal inhibitory concentration (MIC) (E. faecium ATCC19434): 4 µg/mL (≈ 7.28 µM); minimal inhibitory concentration (MIC) (E. coli JM109/pMW218): 0.5 µg/mL (≈ 0.91 µM); minimal inhibitory concentration (MIC) (P. aeruginosa MSC01035): 8 µg/mL (≈ 14.6 µM); minimal inhibitory concentration (MIC) (P. aeruginosa MSC17707): 8 µg/mL (≈ 14.6 µM); minimal inhibitory concentration (MIC) (S. marcescens TH-0447): 4 µg/mL (≈ 7.28 µM); minimal inhibitory concentration (MIC) [2]: 1 µg/mL (≈ 1.82 µM); minimal inhibitory concentration (MIC) (S. marcescens GN6944): 2 µg/mL (≈ 3.64 µM); minimal inhibitory concentration (MIC) [3]: 0.5 µg/mL (≈ 0.91 µM)
CNCC(=O)N[C@@H]1C(CO)O[C@H](OC2O[C@H]3CC(N)[C@@H](O[C@@H]4C(N)C[C@@H](N)C(O)[C@H]4O)OC3C(O)C2NC)C(O)[C@H]1O (stereo partly shown) [Compound V1-b, 4″-N-sarcosylapramycin] |  |  |  |  |  |  | 8 µg/mL (≈ 13.1 µM) | 2 µg/mL (≈ 3.28 µM) | 4 µg/mL (≈ 6.55 µM) | 4 µg/mL (≈ 6.55 µM) | 2 µg/mL (≈ 3.28 µM) | 8 µg/mL (≈ 13.1 µM) | 16 µg/mL (≈ 26.2 µM) | 1 µg/mL (≈ 1.64 µM) | 4 µg/mL (≈ 6.55 µM) | 4 µg/mL (≈ 6.55 µM) | 16 µg/mL (≈ 26.2 µM) | 2 µg/mL (≈ 3.28 µM) | 8 µg/mL (≈ 13.1 µM) | 1 µg/mL (≈ 1.64 µM) | 
CNC1C(O[C@H]2OC(CO)[C@@H](NC(=O)[C@H](C)N)[C@H](O)C2O)O[C@H]2CC(N)[C@@H](O[C@@H]3C(N)C[C@@H](N)C(O)[C@H]3O)OC2C1O (stereo partly drawn) [Compound V1-c, 4″-N-(L-alanyl)apramycin] | 8 µg/mL (≈ 13.1 µM) | 4 µg/mL (≈ 6.55 µM) | 8 µg/mL (≈ 13.1 µM) | 16 µg/mL (≈ 26.2 µM) | 4 µg/mL (≈ 6.55 µM) | 16 µg/mL (≈ 26.2 µM) |  |  |  |  |  |  |  |  |  |  |  |  |  |  | minimal inhibitory concentration (MIC) (E. faecium ATCC19434): 32 µg/mL (≈ 52.4 µM); minimal inhibitory concentration (MIC) (E. coli JM109/pMW218): 2 µg/mL (≈ 3.28 µM); minimal inhibitory concentration (MIC) (P. aeruginosa MSC01035): 8 µg/mL (≈ 13.1 µM); minimal inhibitory concentration (MIC) (P. aeruginosa MSC17707): 8 µg/mL (≈ 13.1 µM); minimal inhibitory concentration (MIC) (S. marcescens TH-0447): 16 µg/mL (≈ 26.2 µM); minimal inhibitory concentration (MIC) [2]: 4 µg/mL (≈ 6.55 µM); minimal inhibitory concentration (MIC) (S. marcescens GN6944): 8 µg/mL (≈ 13.1 µM); minimal inhibitory concentration (MIC) [3]: 2 µg/mL (≈ 3.28 µM)
CNC1C(O[C@H]2OC(CO)[C@@H](NC(=O)[C@@H](C)N)[C@H](O)C2O)O[C@H]2CC(N)[C@@H](O[C@@H]3C(N)C[C@@H](N)C(O)[C@H]3O)OC2C1O (stereo partly drawn) [Compound V1-d, 4″-N-(D-alanyl)apramycin] |  |  |  |  |  |  | 8 µg/mL (≈ 13.1 µM) | 4 µg/mL (≈ 6.55 µM) | 8 µg/mL (≈ 13.1 µM) | 4 µg/mL (≈ 6.55 µM) | 4 µg/mL (≈ 6.55 µM) | 16 µg/mL (≈ 26.2 µM) | 64 µg/mL (≈ 105 µM) | 2 µg/mL (≈ 3.28 µM) | 8 µg/mL (≈ 13.1 µM) | 8 µg/mL (≈ 13.1 µM) | 16 µg/mL (≈ 26.2 µM) | 2 µg/mL (≈ 3.28 µM) | 8 µg/mL (≈ 13.1 µM) | 2 µg/mL (≈ 3.28 µM) | 
CNC1C(O[C@H]2OC(CO)[C@@H](NC(=O)[C@@H](N)CO)[C@H](O)C2O)O[C@H]2CC(N)[C@@H](O[C@@H]3C(N)C[C@@H](N)C(O)[C@H]3O)OC2C1O (stereo partly drawn) [Compound V1-e, 4″-N-(L-seryl)apramycin] |  |  |  |  |  |  | 16 µg/mL (≈ 25.5 µM) | 8 µg/mL (≈ 12.8 µM) | 8 µg/mL (≈ 12.8 µM) | 8 µg/mL (≈ 12.8 µM) | 8 µg/mL (≈ 12.8 µM) | 32 µg/mL (≈ 51.1 µM) | 64 µg/mL (≈ 102 µM) | 2 µg/mL (≈ 3.19 µM) | 8 µg/mL (≈ 12.8 µM) | 8 µg/mL (≈ 12.8 µM) | 16 µg/mL (≈ 25.5 µM) | 4 µg/mL (≈ 6.38 µM) | 8 µg/mL (≈ 12.8 µM) | 2 µg/mL (≈ 3.19 µM) | 
